Source: patent publication US20230310440A1, “RESPIRATORY STIMULANT NASAL FORMULATIONS” (Enalare Therapeutics Inc., priority 2022, published 2023)

How the values were obtained:
Assay type in all cases: physicochemical
[1] = pH solubility study (100 mM citric acid, titrated with NaOH, shaken overnight at room temperature, filtered, HPLC); conditions: for Cmp. A.H2SO4 Concentration: no excess solid, not saturation solubility
Procedure: A pH solubility study was performed to assess the feasibility of formulating a compound having Formula (I) as a simple buffered solution at a reasonable pH for a nasal formulation.
Methodology: A compound having Formula (I) and H2SO4 solution of concentration ˜107 mg/mL in 100 mM citric acid at pH 2.5 was prepared. About 150 μL aliquots of this solution were transferred into 6 separate glass HPLC vials. All the samples, including the solution at pH 2.5, were shaken overnight at room temperature using a gyratory shaker. After shaking, the samples were evaluated visually for the presence of precipitate and were then spin filtered through 0.45 μm syringe tip filters (4 mm diameter) at 3000 rpm for 20 min. The final pH values of the filtrates were measured. The filtrates were then diluted appropriately and analyzed for compound having Formula (I). H2SO4 concentration using the HPLC assay.
Results: The pH values of the samples prior to and after shaking overnight, appearance as well as concentrations of samples are shown in Table 12.

[2] = Drug substance stability (API in closed Type I glass vials at 40° C. and 60° C.)
Procedure: Methodology: Approximately 100 mg of the API (Lot 009M9B058) were stored at each of 40° C. and 60° C. in closed Type I glass vials. Samples were analyzed for appearance and percent purity at T0 and after 1 week, 2 weeks and 4 weeks of storage.
Visually, there were no signs of degradation (i.e. discoloration etc.).

[3] = Stability as a function of pH, narrow range (pH 2-3.6, ~10 mM citric acid and glycine buffers, 1 mg/mL); conditions: Target pH 2.0; 40° C. Storage 4 wk; listed as Cmp. A
Procedure: Accordingly, the stability of the compound was evaluated in the pH range 2-3.6.
Methodology: Buffer solutions containing ˜10 mM each of citric acid and glycine in the pH range 2-3.6 were prepared by titrating 250 mL of a single stock containing both buffer agents with 1N NaOH/1N HCl and removing 50 mL aliquots at predetermined pH values. Solutions at 1 mg/mL were prepared in the buffers by dissolving ˜25 mg of compound in ˜23 mL of a given buffer, adjusting the pH to the target and making up the volume to 25.0 mL in a volumetric flask.
Each of the buffered solutions was filtered through a […] polyether sulfone syringe filter into a volumetric flask previously rinsed with 70% ethanol and dried in a laminar flow hood. Following filtration, each buffered solution was split into 9 aliquots in 5 mL serum vials previously rinsed with 70% ethanol and dried in a laminar flow hood. Filtration and preparation of aliquots were performed in a laminar flow hood. Of the nine aliquots, three aliquots were stored at each 40° C. and 60° C., two aliquots were stored at 25° C. and one aliquot was submitted for T0 testing. Samples were evaluated for pH, assay and related substances at TO and, following 1 week, 2 weeks and 4 weeks of storage at 40° C. and 60° C. Samples stored at 25° C. served as controls to be analyzed if necessary. […]

With CCCNc1nc(NCCC)nc(N(C)OC)n1 [Cmp. A.H2SO4, N-(4,6-Bis-n-propylamino-[1,3,5]triazin-2-yl)-O,N-dimethyl-hydroxylamine] the “Final pH after Shaking and Filtration” value ([1]; Target pH 2.5, Initial pH 2.51) was 2.42, the “Cmp. A.H2SO4 Concentration” value ([1]; Target pH 2.5, Initial pH 2.51) was 104.1 mg/mL and the “Final pH after Shaking and Filtration” value ([1]; Target pH 3.0, Initial pH 3.05) was 3.00. The “Cmp. A.H2SO4 Concentration” value ([1]; Target pH 3.0, Initial pH 3.05) was 99.8 mg/mL, the “Final pH after Shaking and Filtration” value ([1]; Target pH 3.5, Initial pH 3.51) was 3.51 and the “Cmp. A.H2SO4 Concentration” value ([1]; Target pH 3.5, Initial pH 3.51) was 101.6 mg/mL. For the same compound, the “Final pH after Shaking and Filtration” value ([1]; Target pH 4.0, Initial pH 4.00) was 3.79, the “Final pH after Shaking and Filtration” value ([1]; Target pH 4.5, Initial pH 4.55) was 4.37 and the “Final pH after Shaking and Filtration” value ([1]; Target pH 5.0, Initial pH 4.93) was 4.52. The “Final pH after Shaking and Filtration” value ([1]; Target pH 5.5, Initial pH 5.63) was 5.02, the “Stability of the API on storage (in words)” value ([2]; 4 weeks, even at 60° C.) was “quite stable” and the “Purity (%)” value ([2]; 40° C., T = 1 week) was 99.92%. For the same compound, the “Purity (%)” value ([2]; 40° C., T = 2 week) was 99.90%, the “Purity (%)” value ([2]; 40° C., T = 4 week) was 100.00% and the “Purity (%)” value ([2]; 60° C., T = 1 week) was 99.76%. For the same compound, the “Purity (%)” value ([2]; 60° C., T = 2 week) was 100.00%, the “Purity (%)” value ([2]; 60° C., T = 4 week) was 100.00% and the “Purity (%)” value ([2]; T = 0) was 100.00%.
CCCNc1nc(NCCC)nc(N(C)OC)n1 [Compound A, N-(4,6-Bis-n-propylamino-[1,3,5]triazin-2-yl)-O,N-dimethyl-hydroxylamine] gave an Assay [3] of 0956.
